We go through 19 compounds from PubChem BioAssay AID2286 (Southern Research Specialized Biocontainment Screening …, 2010).

SMILES strings stand for the structures. The source made the active and inactive calls.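 The calls were made as follows: active = minimum cell viability of 80% or lower across the dose range, counted as toxic; inactive = minimum cell viability above 80%.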 Where only a bound is given, the exact number is not on record here.

Assay [1] in a line: viability loss in fusion assay cells – cell-based, MAGI and MAGI-HeLa co-culture, cytotoxicity control for HIV-1 fusion inhibitor project, dose response (AID 2286).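 As to all read-outs here: cells exposed to compound for at least 64 h before ATP readout.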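 As to minimum viability: 100% = median of DMSO vehicle wells with no ATP signal meaning 0%.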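 As to viability: 100% = median of DMSO vehicle wells with no ATP signal meaning 0%.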 The settings on record: MAGI-CCR5 cells viability, CellTiter-Glo ATP luminescence; for minimum viability: measured here: MAGI minimum viability across doses. In general terms: In ATP-based viability assays light output follows the ATP content of the culture.

For assay [2], the system named is MAGI-CCR5 cells viability, CellTiter-Glo ATP luminescence. The assay is described as above.
The mark [3] stands for this setting: MAGI-HeLa co-culture viability, at 50 µM, stronger effect = lower value.
Where [4] appears, read: measured here: MAGI + HeLa-R5-16 co-culture viability.
Where [5] appears, read: at 12.5 µM, stronger effect = lower value.
[6] abbreviates: at 1.56 µM, stronger effect = lower value.

By viability is commonly meant a read-out of living cells in per cent, often relative to untreated cells. By CC50 is commonly meant the concentration at which the toxic effect on the cells reaches its halfway point. For `COc1ccc(-c2nn(-c3ccccc3)cc2/C=C2/SC(=S)N(CCC(=O)O)C2=O)c(C)c1`, the viability in assay [1] (setting [3]) worked out at 71.9%. Further, the minimum viability in assay [1] (at 50 µM, stronger effect = lower value) is 52%. Also, the figures for the half-maximal cytotoxic concentration (CC50) in assay [2] and in assay [2] (setting [4]) were 48.6 µM and more than 50 µM, respectively.

In the case of `O=C(O)CN1C(=O)/C(=C\c2cc(Br)ccc2OCc2ccc([N+](=O)[O-])cc2)SC1=S`, the viability in assay [1] (setting [3]) was 24.7%. Besides, in assay [1] (at 50 µM, stronger effect = lower value), the minimum viability turned out to be 69.8%. Further, the CC50 in assay [2] (setting [4]) was determined as 19.9 µM.

As to `O=C(O)CN1C(=O)/C(=C\c2ccccc2OCc2ccc(Cl)cc2Cl)SC1=S`, the figures for the viability in assay [1] (setting [3]) and in assay [1] (at 50 µM (top of the series)) were 67.5% and 84.5% (inactive), respectively. In assay [1] (at 50 µM, stronger effect = lower value), the minimum viability turned out to be 84.5%. The CC50 in assay [2] (setting [4]) is more than 50 µM.

`COc1ccc(-c2nn(-c3ccccc3)cc2/C=C2/SC(=S)N(CCCC(=O)O)C2=O)c(C)c1`: the viability in assay [1] (setting [3]) was 68.8%. Also, in assay [1] (at 50 µM, stronger effect = lower value), the minimum viability turned out to be 57%. Moreover, the half-maximal cytotoxic concentration (CC50) in assay [2] (setting [4]) is more than 50 µM.

`O=C(Nc1ccc(Oc2ccc(Cl)cc2)c(Cl)c1)c1cc(I)cc(I)c1O`: the viability in assay [1] (setting [3]) worked out at 11.8%. For the same compound, the minimum viability in assay [1] (at 50 µM, stronger effect = lower value) was found to be 10.4%. Moreover, the half-maximal cytotoxic concentration (CC50) in assay [2] is 13.6 µM; in assay [2] (setting [4]), 25.2 µM.

As for `CCOc1cc(/C=C2\C(=N)N3N=C(S(C)(=O)=O)SC3=NC2=O)ccc1OCCOc1cccc(OC)c1`, the viability in assay [1] (setting [3]) turned out to be 47.3%. Moreover, the minimum viability in assay [1] (at 50 µM, stronger effect = lower value) was 78%. Also, the half-maximal cytotoxic concentration (CC50) in assay [2] (setting [4]) came out at 43.2 µM.

With `O=C(N/N=C/c1ccc(-c2ccc(S(=O)(=O)Nc3ncccn3)cc2)o1)c1cc2ccccc2cc1O`, in assay [1] (setting [3]), the viability was determined as 30.7%. The minimum viability in assay [1] (at 50 µM, stronger effect = lower value) is 16.4%. Moreover, the CC50 in assay [2] is 15.8 µM; in assay [2] (setting [4]), 32.6 µM.

Take `COc1cc(/C=C2\C(=N)N3N=C(S(C)(=O)=O)SC3=NC2=O)cc(OC)c1OCCOc1ccccc1C`: the results for the viability in assay [1] (setting [3]) and in assay [1] (at 50 µM (top of the series)) were 124% and 106% (inactive), respectively. The minimum viability in assay [1] (setting [5]) was found to be 102%.

`CCCCCOc1ccc(C2C(C(=O)c3ccc(C)o3)=C(O)C(=O)N2c2cc(C)on2)cc1` (stereo not given): the viability in assay [1] (setting [3]) was 113%; in assay [1] (at 50 µM (top of the series)), 85.1% (inactive). Moreover, the minimum viability in assay [1] (at 25 µM, stronger effect = lower value) was 84.6%.

As for `O=C(O)c1cccc(-n2cccc2/C=C2/NC(=O)N(c3ccc(Cl)cc3)C2=O)c1`, the results for the viability in assay [1] (setting [3]) and in assay [1] (at 50 µM (top of the series)) were 112% and 106% (inactive), respectively. For the same compound, the minimum viability in assay [1] (setting [6]) worked out at 97.5%.

In the case of `Cc1c(CCC(=O)O)c(=O)oc2c(C)c3occ(-c4ccc(Br)cc4)c3cc12`, in assay [1] (setting [3]), the viability stood at 97.7%. The minimum viability in assay [1] (setting [5]) was 72.5%.

For `CC(C)COc1ccc(-c2nn(-c3ccccc3)cc2/C=C2/SC(=S)N(CC(=O)O)C2=O)cc1`, the results for the viability in assay [1] (setting [3]) and in assay [1] (at 50 µM (top of the series)) were 90.2% and 81.5% (inactive), respectively. In assay [1] (at 50 µM, stronger effect = lower value), the minimum viability turned out to be 81.5%.

For `N#Cc1c(-c2ccccc2)nc(SCc2ccc(Cl)cc2)[nH]c1=O`, the viability in assay [1] (setting [3]) was 113%; in assay [1] (at 50 µM (top of the series)) it was 86.1% (inactive). Also, the minimum viability in assay [1] (at 50 µM, stronger effect = lower value) was found to be 86.1%.

Take `COc1ccc(-c2csc(NC(=O)CSc3nc(C)nc4sc(C(=O)O)c(C)c34)n2)cc1`: the viability in assay [1] (setting [3]) is 109%; in assay [1] (at 50 µM (top of the series)), 99.7% (inactive). The minimum viability in assay [1] (setting [6]) turned out to be 83.4%.

With `N=C1/C(=C\c2ccc(-c3cccc(C(=O)O)c3)o2)C(=O)N=C2SC=C(c3ccccc3)N12`, the viability was 103% in assay [1] (setting [3]) and 81% (inactive) in assay [1] (at 50 µM (top of the series)). Moreover, the minimum viability in assay [1] (setting [5]) amounted to 80.3%.

In the case of `Cc1cc(/C=C2/C(=N)N3C(=NC2=O)SN=C3S(C)(=O)=O)c(C)n1-c1ccccc1`, the viability in assay [1] (setting [3]) is 116%; in assay [1] (at 50 µM (top of the series)), 104% (inactive). The minimum viability in assay [1] (at 0.2 µM, stronger effect = lower value) is 101%.

For the compound `O=C(O)c1cccc2c(-c3ccccc3)c(-c3ccccc3)[nH]c12`, the viability is 128% in assay [1] (setting [3]) and 93.1% (inactive) in assay [1] (at 50 µM (top of the series)). Besides, in assay [1] (at 50 µM, stronger effect = lower value), the minimum viability was 93.1%.

Regarding `O=C(N/N=C/c1cc(Br)c(O)c(Br)c1)c1cc2c(ccc3ccccc32)o1`, the viability in assay [1] (setting [3]) is 112%; in assay [1] (at 25 µM (top of the series)) it was 81.4% (inactive). For the same compound, in assay [1] (at 25 µM, stronger effect = lower value), the minimum viability was determined as 81.4%.

In the case of `O=C(O)C1Nc2c(cccc2C(F)(F)F)C2C=CCC12` (stereo not given), the figures for the viability in assay [1] (setting [3]) and in assay [1] (at 50 µM (top of the series)) were 124% and 106% (inactive), respectively. Also, the minimum viability in assay [1] (setting [5]) is 86.1%.
